Assay results reported in PMC8450341 (Frontiers in Physiology, 2021).

Key:
[1] = Serum pharmacokinetics after single oral dose in normoxic calves
Experimental: (§1) Pharmacokinetic parameters were calculated by a non-compartmental model using Phoenix WinNonlin v8.1 ([Wagner, 1993]).

[2] = test system: ED-A Fn, tenascin C, osteopontin and periostin mRNAs; test: Real-time PCR of genes in pulmonary remodeling; type: in vivo, bovine calf
Experimental: At the conclusion of the study period, calves were deeply anesthetized and euthanized. Tissue samples from right ventricle free wall and distal lung parenchyma were snap frozen in liquid nitrogen for laboratory analysis. RNA isolation and quantitative PCR were performed as described previously ([Frid et al., 2009]). mRNA abundance was quantitated relative to HPRT by the delta Ct method. The following primers were used (5′–3′). Fibronectin, Extracellular Domain A (ED-A Fn), Fwd:[…], Rev:[…]; Tenascin C (TnC), Fwd:G […], Rev:[…] TCCA; Osteopontin (SPPA), Fwd:[…] […]
(A) Immunoblotting HDAC abundance. RV and lung homogenates were prepared and HDAC abundance was determined by immunoblotting as described in section “Materials and Methods.” Additional untreated control and hypoxic animals were analyzed in parallel for comparison. Protein abundance was quantitated densitometrically relative to beta-actin. *p < 0.05 vs. control (unpaired two-tailed t-test). […] Abundances of indicated mRNAs were quantitated by real-time PCR as described in section “Materials and Methods.” Animals used in the present study were analyzed together with samples from additional untreated hypoxic and normoxic calves (n = 4 each) that were managed according to the same animal protocols described in section “Materials and Methods,” and studied around the same period of time. […]

bovine PH-fibs = test system: bovine PH-fibs; parameters: method as in Li et al., 2011; conditions: ref Li et al., 2011; cited from earlier work
in vivo = conditions: male, Holstein, bovine, serum, po, 235 mg
Experimental: as §1

HDAC1 = test: Immunoblotting of HDAC abundance in RV and lung homogenates; type: in vivo, bovine calf; conditions: vorinostat over initial 5 days of hypoxia, measured at end of 14 days hypoxic exposure, vs untreated PH
Experimental: At the conclusion of the study period, calves were deeply anesthetized and euthanized. Tissue samples from right ventricle free wall and distal lung parenchyma were snap frozen in liquid nitrogen for laboratory analysis. RNA isolation and quantitative PCR were performed as described previously ([Frid et al., 2009]). mRNA abundance was quantitated relative to HPRT by the delta Ct method. The following primers were used (5′–3′). […] TCCA; Osteopontin (SPPA), Fwd:[…]; Hypoxanthine ribosyl transferase (HPRT), Fwd:[…], Rev:[…].
Procedures for immunoblotting and densitometry were performed as described previously ([Li et al., 2011]). HDAC antibodies were obtained from Cell Signaling Technology (HDAC1, #5356; HDAC5, #20458).
(A) Immunoblotting HDAC abundance.

[3] = test system: IL-6, CSF2, SDF1, IL1β, IL-1RA, TLR2, POSN mRNAs; test: Pairwise qPCR of inflammatory and matrikine gene expression; type: in vivo, bovine calf; conditions: hypoxic vorinostat-treated vs. untreated calf
Experimental: At the conclusion of the study period, calves were deeply anesthetized and euthanized. Tissue samples from right ventricle free wall and distal lung parenchyma were snap frozen in liquid nitrogen for laboratory analysis. RNA isolation and quantitative PCR were performed as described previously ([Frid et al., 2009]). mRNA abundance was quantitated relative to HPRT by the delta Ct method. The following primers were used (5′–3′). Fibronectin, Extracellular Domain A (ED-A Fn), Fwd:[…], Rev:[…]; Tenascin C (TnC), Fwd:G […], Rev:[…] TCCA; Osteopontin (SPPA), Fwd:[…] CACAGA, Rev:[…]; Periostin (POSTN), Fwd:[…], Rev:CAC […]; Skeletal muscle alpha-actin (ACTA1), Fwd:[…], Rev:GAAGGT […]; Brain natriuretic peptide (NPPB), Fwd:[…], Rev:[…]; Hypoxanthine ribosyl transferase (HPRT), Fwd:[…], Rev:[…].
Figure 2. Comparison of inflammatory and matrikine gene expression in vorinostat treated versus untreated hypoxic calves. mRNA abundance was quantitated as described in Methods. For each indicated mRNA, abundance in the vorinostat-treated PH calf was determined relative to that in the untreated PH calf (indicated by dotted line at unity).

[4] = cited from earlier work
[5] = single oral dose, four normoxic calves

**Q.** Which results are given for `O=C(CCCCCCC(=O)Nc1ccccc1)NO` [vorinostat, suberanilohydroxamic acid]?
**A.** time until serum vorinostat returns to undetectable levels ([1]; after single oral administration): ≤ 24 h; integrated area under the concentration × time curve [1, 5]: ~1,500 nM•h; peak serum concentration [1, 5]: ~400 nM; time to peak serum concentration [1, 5]: ~4 h; lung expression of ED-A Fn, TNC, osteopontin and periostin mRNAs ([2]; hypertensive calves compared to untreated hypertensive calves): tended to reduce; abundance of ED-A Fn, TNC, osteopontin and periostin mRNAs in normoxic animals ([2]; normoxic animals): not affected; activated fibroblast phenotype (bovine PH-fibs): reversed; Tmax (in vivo): ≤ 4 h; expression of HDAC1 in both lung and RV (HDAC1): tended to decrease; expression of pro-inflammatory mRNAs including IL-6, CSF2, SDF1, IL1β, IL-1RA, TLR2, and the matrikine POSN [3]: reduced expression; aqueous solubility [4]: poor
